Experiment [1] deals with pERK (phospho-p44/42 ERK) in HCC827 cells. Nature of the experiment: Cellular pERK Inhibition Assay, Method A (In-Cell Western). The format is cell-based. The essentials: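 HCC827 cells in RPMI/10% FBS were treated with compounds in serum-free medium (0.2% DMSO final) at 37 °C for the indicated time, in quadruplicate. Fixed cells were immunostained for phospho-p44/42 ERK and read by infrared imaging. Blank-subtracted signal was expressed as % of DMSO control; IC50 from four-parameter logistic fit, averaged across experiments.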

Another experiment has as its target SHP2 (Homo sapiens (Human), UniProt Q06124). Nature of the experiment: SHP2 Biochemical Assay (DiFMUP conversion, pIRS1-activated). In outline: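 Human SHP2 (10 pM) pre-incubated 30 min with compound and […] pIRS1 activating peptide, then 50 μM DiFMUP added; buffer 25 mM Bis-Tris propane pH 7.0, 150 mM NaCl, 5% DMSO. Fluorescence rate (ex 360/em 450 nm) over 30 min; IC50 by four-parameter fit, averaged across experiments.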

[2] abbreviates: Homo sapiens, Table 19, head prints unit as "-M", read-out: pERK (IC50) Method A.
Where [3] appears, read: Table 19, head prints unit as "-M".
Where [4] appears, read: Homo sapiens, Table 20, read-out: pERK (IC50, μM) Method A.

Where two headings read alike, the source gives them in different places.

For orientation: IC50 means the concentration that inhibits the measured activity by half.

Sequence of SHP2 (Q06124 whole entry): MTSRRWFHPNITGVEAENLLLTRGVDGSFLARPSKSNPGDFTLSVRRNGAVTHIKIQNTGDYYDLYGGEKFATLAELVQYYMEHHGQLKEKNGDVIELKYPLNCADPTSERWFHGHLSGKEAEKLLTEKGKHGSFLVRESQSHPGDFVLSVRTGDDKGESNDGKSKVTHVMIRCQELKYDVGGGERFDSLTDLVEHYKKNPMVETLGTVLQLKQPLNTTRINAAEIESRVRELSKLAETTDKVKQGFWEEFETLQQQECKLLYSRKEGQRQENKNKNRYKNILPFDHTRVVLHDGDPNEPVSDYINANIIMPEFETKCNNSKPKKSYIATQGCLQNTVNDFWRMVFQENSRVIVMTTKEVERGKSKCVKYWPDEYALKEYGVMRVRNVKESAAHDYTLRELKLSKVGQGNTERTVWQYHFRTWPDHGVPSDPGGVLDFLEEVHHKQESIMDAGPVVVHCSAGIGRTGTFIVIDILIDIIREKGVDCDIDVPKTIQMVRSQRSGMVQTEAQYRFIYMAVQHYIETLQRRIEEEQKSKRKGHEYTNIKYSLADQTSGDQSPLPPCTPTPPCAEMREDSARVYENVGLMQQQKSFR

As for `C[C@H]1CN(c2nc3[nH]cc(-c4ccc5nn(C)cc5c4Cl)c3c(=O)n2C)C[C@@H]1N` [Example 57, 2-((3R,4S)-3-amino-4-methylpyrrolidin-1-yl)-5-(4-chloro-2-methyl-2H-indazol-5-yl)-3-methyl-3,7-dihydro-4H-pyrrolo[2,3-d]pyrimidin-4-one], the values for the IC50 (in experiment [1] (setting [2]); against SHP2 (setting [3])) were 2.9 µM and 120 nM, respectively.
As to `C[C@H]1CNCCN1c1nc2[nH]cc(-c3ccc4nn(C)cc4c3Cl)c2c(=O)n1C` [Example 48, (S)-5-(4-chloro-2-methyl-2H-indazol-5-yl)-3-methyl-2-(2-methylpiperazin-1-yl)-3,7-dihydro-4H-pyrrolo[2,3-d]pyrimidin-4-one], the results for the IC50 (in experiment [1] (setting [2]); against SHP2 (setting [3])) were 1 µM and 85 nM, respectively.
Regarding `Cn1cc2c(Cl)c(-c3c[nH]c4nc(N5C[C@@H]6C[C@H]5CN6)n(C)c(=O)c34)ccc2n1` [Example 21, 2-((1S,4S)-2,5-diazabicyclo[2.2.1]heptan-2-yl)-5-(4-chloro-2-methyl-2H-indazol-5-yl)-3-methyl-3,7-dihydro-4H-pyrrolo[2,3-d]pyrimidin-4-one], the IC50 in experiment [1] (setting [2]) was 0.32 µM; on SHP2 (setting [3]) it was 11 nM.
For `CCc1nc2ccc(-c3c[nH]c4nc(N5[C@@H]6CC[C@H]5C[C@@H](N)C6)n(C)c(=O)c34)c(Cl)c2s1` [Example 6, 2-(endo-3-amino-8-azabicyclo[3.2.1]octan-8-yl)-5-(7-chloro-2-ethylbenzo[d]thiazol-6-yl)-3-methyl-3,7-dihydro-4H-pyrrolo[2,3-d]pyrimidin-4-one] the same measures were 0.58 µM and 6.5 nM.
In the case of `Cc1nc2ccc(-c3c[nH]c4nc(N5CC6COCC(C5)N6)n(C)c(=O)c34)c(Cl)c2s1` [Example 81, 2-(3-oxa-7,9-diazabicyclo[3.3.1]nonan-7-yl)-5-(7-chloro-2-methylbenzo[d]thiazol-6-yl)-3-methyl-3,7-dihydro-4H-pyrrolo[2,3-d]pyrimidin-4-one], the IC50 in experiment [1] (setting [2]) was determined as 0.78 µM; against SHP2 (setting [3]), 14 nM.
Regarding `Cn1nc2ccc(-c3n[nH]c4nc(N5[C@H]6CC[C@@H]5[C@](C)(N)C6)n(C)c(=O)c34)c(Cl)c2c1Cl` (racemic) [Example 175, rac-6-((1R,2R,4S)-2-amino-2-methyl-7-azabicyclo[2.2.1]heptan-7-yl)-3-(3,4-dichloro-2-methyl-2H-indazol-5-yl)-5-methyl-1,5-dihydro-4H-pyrazolo[3,4-d]pyrimidin-4-one], the figures for the IC50 (in experiment [1] (setting [4]); against SHP2 (Table 20)) were 0.22 µM and 12 nM, respectively.
In the case of `Cn1cc2c(Cl)c(-c3c[nH]c4nc(N5CCC6NCC6C5)n(C)c(=O)c34)ccc2n1` (centres unmarked) [Example 40, 2-(3,7-diazabicyclo[4.2.0]octan-3-yl)-5-(4-chloro-2-methyl-2H-indazol-5-yl)-3-methyl-3,7-dihydro-4H-pyrrolo[2,3-d]pyrimidin-4-one], the IC50 in experiment [1] (setting [2]) came to 4.5 µM; on SHP2 (setting [3]) it was 96 nM.
Turning to `Cn1cc2c(Cl)c(-c3c[nH]c4nc(N5[C@@H]6CC[C@H]5C[C@@H](N)C6)n(C)c(=O)c34)ccc2n1` [Example 8, 2-(endo-3-amino-8-azabicyclo[3.2.1]octan-8-yl)-5-(4-chloro-2-methyl-2H-indazol-5-yl)-3-methyl-3,7-dihydro-4H-pyrrolo[2,3-d]pyrimidin-4-one], the values for the IC50 (in experiment [1] (setting [2]); at SHP2 (setting [3])) were 0.095 µM and 11 nM, respectively.
`Cn1nc2ccc(-c3c[nH]c4nc(N5[C@H]6CC[C@@H]5[C@@H](F)[C@@H](N)C6)n(C)c(=O)c34)c(Cl)c2c1Cl` [Example 163, 2-((1R,2S,3S,5S)-3-amino-2-fluoro-8-azabicyclo[3.2.1]octan-8-yl)-5-(3,4-dichloro-2-methyl-2H-indazol-5-yl)-3-methyl-3,7-dihydro-4H-pyrrolo[2,3-d]pyrimidin-4-one]: the figures for the IC50 (in experiment [1] (setting [4]); against SHP2 (Table 20)) were 0.012 µM and 2 nM, respectively.
Consider `Cn1nc2ccc(-c3c[nH]c4nc(N5C6CCC5CNC6)n(C)c(=O)c34)c(Cl)c2n1` [Example 87, 2-(3,8-diazabicyclo[3.2.1]octan-8-yl)-5-(4-chloro-2-methyl-2H-benzo[d][1,2,3]triazol-5-yl)-3-methyl-3,7-dihydro-4H-pyrrolo[2,3-d]pyrimidin-4-one], for which the IC50 came to 0.58 µM in experiment [1] (setting [2]) and 68 nM against SHP2 (setting [3]).
In the case of `COc1c(-c2c[nH]c3nc(N4C5CCC4CC(N)C5)n(C)c(=O)c23)ccc2nn(C)cc12` (stereo not drawn) [Example 73, 2-(endo-3-amino-8-azabicyclo[3.2.1]octan-8-yl)-5-(4-methoxy-2-methyl-2H-indazol-5-yl)-3-methyl-3,7-dihydro-4H-pyrrolo[2,3-d]pyrimidin-4-one], the IC50 in experiment [1] (Table 19, head prints unit as "-M", read-out: pERK (IC50) Method A) is above 10 µM; at SHP2 (setting [3]), 870 nM.
Turning to `Cn1cc2c(Cl)c(-c3c[nH]c4nc(N5C[C@H]6C[C@@H]5CN6)n(C)c(=O)c34)ccc2n1` [Example 23, 2-((1R,4R)-2,5-diazabicyclo[2.2.1]heptan-2-yl)-5-(4-chloro-2-methyl-2H-indazol-5-yl)-3-methyl-3,7-dihydro-4H-pyrrolo[2,3-d]pyrimidin-4-one], the IC50 in experiment [1] (setting [2]) was determined as 4.1 µM; on SHP2 (setting [3]) it was 120 nM.
With `Cn1nc2ccc(-c3n[nH]c4nc(N5C[C@@H]6CC[C@H]5[C@H]6N)n(C)c(=O)c34)c(Cl)c2c1Cl` (racemic) [Example 126, rac-6-((1S,4S,7S)-7-amino-2-azabicyclo[2.2.1]heptan-2-yl)-3-(3,4-dichloro-2-methyl-2H-indazol-5-yl)-5-methyl-1,5-dihydro-4H-pyrazolo[3,4-d]pyrimidin-4-one], the IC50 is 0.084 µM in experiment [1] (setting [2]) and 13 nM on SHP2 (setting [3]).
In the case of `CN[C@@H]1C[C@@H]2CC[C@H]1N2c1nc2[nH]nc(-c3ccc4nn(C)c(Cl)c4c3Cl)c2c(=O)n1C` [Example 119, 3-(3,4-dichloro-2-methyl-2H-indazol-5-yl)-5-methyl-6-((1R,2R,4S)-2-(methylamino)-7-azabicyclo[2.2.1]heptan-7-yl)-1,5-dihydro-4H-pyrazolo[3,4-d]pyrimidin-4-one], the IC50 was found to be 0.29 µM in experiment [1] (setting [2]) and 17 nM at SHP2 (setting [3]).
Consider `Cn1cc2c(Cl)c(-c3c[nH]c4nc(N5[C@H]6CC[C@@H]5[C@H](N)C6)n(C)c(=O)c34)ccc2n1` [Example 49, 2-((1R,2R,4S)-2-amino-7-azabicyclo[2.2.1]heptan-7-yl)-5-(4-chloro-2-methyl-2H-indazol-5-yl)-3-methyl-3,7-dihydro-4H-pyrrolo[2,3-d]pyrimidin-4-one], for which the half-maximal inhibitory concentration (IC50) in experiment [1] (setting [2]) amounted to 0.021 µM; at SHP2 (setting [3]), 4.5 nM.
On to `CCn1cc2c(Cl)c(-c3n[nH]c4nc(N5[C@H]6CC[C@@H]5[C@H](N)C6)n(C)c(=O)c34)ccc2n1` [Example 112, 6-((1R,2R,4S)-2-amino-7-azabicyclo[2.2.1]heptan-7-yl)-3-(4-chloro-2-ethyl-2H-indazol-5-yl)-5-methyl-1,5-dihydro-4H-pyrazolo[3,4-d]pyrimidin-4-one], for which the IC50 is 0.26 µM in experiment [1] (setting [2]) and 13 nM against SHP2 (setting [3]).
Take `CCn1cc2c(Cl)c(-c3c[nH]c4nc(N5C6CCC5CNC6)n(C)c(=O)c34)ccc2n1` [Example 91, 2-(3,8-diazabicyclo[3.2.1]octan-8-yl)-5-(4-chloro-2-ethyl-2H-indazol-5-yl)-3-methyl-3,7-dihydro-4H-pyrrolo[2,3-d]pyrimidin-4-one]: the IC50 in experiment [1] (setting [2]) is 0.34 µM; at SHP2 (setting [3]) it was 12 nM.
With `CCn1nc2ccc(-c3c[nH]c4nc(N5[C@H]6CC[C@@H]5[C@H](N)C6)n(C)c(=O)c34)c(Cl)c2c1C(F)F` [Example 109, 2-((1R,2R,4S)-2-amino-7-azabicyclo[2.2.1]heptan-7-yl)-5-(4-chloro-3-(difluoromethyl)-2-ethyl-2H-indazol-5-yl)-3-methyl-3,7-dihydro-4H-pyrrolo[2,3-d]pyrimidin-4-one], the half-inhibitory concentration (IC50) in experiment [1] (setting [2]) turned out to be 0.12 µM; against SHP2 (setting [3]) it was 6.5 nM.
For `Cn1c(N2[C@@H]3CC[C@H]2C[C@@H](N)C3)nc2[nH]cc(-c3ccc4nn(C(C)(C)C)cc4c3Cl)c2c1=O` [Example 9, 2-(endo-3-amino-8-azabicyclo[3.2.1]octan-8-yl)-5-(2-(tert-butyl)-4-chloro-2H-indazol-5-yl)-3-methyl-3,7-dihydro-4H-pyrrolo[2,3-d]pyrimidin-4-one], the IC50 in experiment [1] (setting [2]) was determined as 1.2 µM; against SHP2 (setting [3]), 94 nM.
In the case of `Cn1nc2ccc(-c3c[nH]c4nc(N5C6CCCC5CNC6)n(C)c(=O)c34)c(F)c2c1Cl` [Example 100, 2-(3,9-diazabicyclo[3.3.1]nonan-9-yl)-5-(3-chloro-4-fluoro-2-methyl-2H-indazol-5-yl)-3-methyl-3,7-dihydro-4H-pyrrolo[2,3-d]pyrimidin-4-one], the IC50 in experiment [1] (setting [2]) is 0.095 µM; at SHP2 (setting [3]), 6 nM.
For `CCn1cc2c(Cl)c(-c3c[nH]c4nc(N5CCC(C)(N)CC5)n(C)c(=O)c34)ccc2n1` [Example 3, 2-(4-amino-4-methylpiperidin-1-yl)-5-(4-chloro-2-ethyl-2H-indazol-5-yl)-3-methyl-3,7-dihydro-4H-pyrrolo[2,3-d]pyrimidin-4-one] the same measures were 0.21 µM and 15 nM.
Consider `CN(C)C(=O)Cn1cc2c(Cl)c(-c3c[nH]c4nc(N5C6CCC5CNC6)n(C)c(=O)c34)ccc2n1` [Example 86, 2-(5-(2-(3,8-diazabicyclo[3.2.1]octan-8-yl)-3-methyl-4-oxo-4,7-dihydro-3H-pyrrolo[2,3-d]pyrimidin-5-yl)-4-chloro-2H-indazol-2-yl)-N,N-dimethylacetamide], for which the IC50 in experiment [1] (setting [2]) came to 5.2 µM; against SHP2 (setting [3]), 59 nM.

For the origin of these results see patent publication US12037345B2, “Heterobicyclic compounds for inhibiting the activity of SHP2” (TAIHO PHARMACEUTICAL CO., LTD., priority 2018, dated 2024).
